According to patent US7429460B2, “Methods of screening for inhibitors of phospholipid synthesis related to glycolipid-storage diseases” (Yeda Research and Development Co., Ltd., priority 2003, dated 2008):

Legend:
[1] = test system: CTP:phosphocholine cytidylyltransferase (CCT); experiment: CCT assay in rat brain cortical homogenates with liposomes; type: biochemical; details: DOPC liposomes, 200 μM; for CCT activity: 8.9±1.0 without lipid
[2] = test system: rat hippocampal neurons; details: 50 μM PDMP; cited from earlier work
[3] = test system: CTP:phosphocholine cytidylyltransferase (CCT); experiment: CCT assay in homogenates of treated hippocampal neurons; type: cell-based, rat; details: 50 μM PDMP
Experimental: (§1) Neurons from individual cover slips were washed twice with ice-cold phosphate-buffered saline, and cells removed by scraping into 300 μl of buffer containing 50 mM imidazole, 2 mM EDTA, 150 mM KCl, 6 mM ADP, 0.2 mM phenylmethylsulfonylfluoride, 1 μg/ml pepstatin and 1 μg/ml leupeptin. After brief sonication, an aliquot was removed for DNA determination and 100 μl was used for the CCT assay.
CCT was assayed as described (Weinhold P A and Feldman D A. 1992. Choline-phosphate cytidylyltransferase. Methods Enzymol. 209, 248-258), with some minor modifications. The assay was performed in a final volume of 200 μl containing 1.6 mM phosphorylcholine/0.25 μCi [^14C]methyl phosphorylcholine, 3 mM CTP, 12 mM magnesium acetate, and DOPC liposomes with or without oleic acid and GicCer or GalCer, as indicated in the figure legends. Liposomes were prepared by sonicating resuspended lipids in the assay buffer at room temperature for 3 min using a sonicator (Sonics & Materials Inc., Newtown, Conn.) fitted with a micro-tip probe set to 750 W output, using 25% of the maximal amplitude and with pulsations of 9.0 sec every 9.2 sec, which gave a translucent liposome preparation with no precipitates. The final concentration of DOPC and oleic acid in the liposomes was 500 μM each. […]

[4] = test system: CTP:phosphocholine cytidylyltransferase (CCT); experiment: CCT assay in hippocampal neuron homogenates with substance added to the assay mixture; type: biochemical, rat; details: 0.5 mM DOPC/0.5 mM oleic acid/0.3 mM sphingolipid or lyso-sphingolipid; 8-day-old neurons
Experimental: as §1
(§2) CCT was assayed as described (Weinhold P A and Feldman D A. 1992. Choline-phosphate cytidylyltransferase. Methods Enzymol. 209, 248-258), with some minor modifications. The assay was performed in a final volume of 200 μl containing 1.6 mM phosphorylcholine/0.25 μCi [^14C]methyl phosphorylcholine, 3 mM CTP, 12 mM magnesium acetate, and DOPC liposomes with or without oleic acid and GicCer or GalCer, as indicated in the figure legends. Liposomes were prepared by sonicating resuspended lipids in the assay buffer at room temperature for 3 min using a sonicator (Sonics & Materials Inc., Newtown, Conn.) fitted with a micro-tip probe set to 750 W output, using 25% of the maximal amplitude and with pulsations of 9.0 sec every 9.2 sec, which gave a translucent liposome preparation with no precipitates. The final concentration of DOPC and oleic acid in the liposomes was 500 μM each. The reaction was terminated after 25 min at 37° C. by addition of 200 μl of 150 mM phosphorylcholine in 10% trichloroacetic acid. CDP-choline was recovered by addition of 2 ml of 6% charcoal in water (w/v). After 30 min at room temperature the charcoal suspension was washed 4 times with water and centrifuged at 1,000 gav for 10 min. The aqueous supernatants were removed and CDP-choline was eluted from the charcoal with 3 washes of water/ethanol/28% NH4OH (116:188:11, v/v/v). Eluates were pooled and evaporated to dryness under N2. Phosphorylcholine and CDP-choline were added to the tubes and the samples separated by TLC using 0.9% NaCl/methanol/28% NE4OH (50:70:5, v/v/v) as the developing solvent. Metabolites were identified by iodine, and the CDP-choline spot was scraped into scintillation vials for scintillation counting.
CCT activity was assayed in homogenates prepared from 8-day-old normal rat hippocampal neurons as described herein above. The reaction mixture comprised 0.5 mM DOPC/0.5 mM oleic acid/0.3 mM sphingolipid or lyso-sphingolipid. CCT activity with each sphingolipid or lyso-sphingolipid was measured twice. Basal CCT activity differed by ˜20% between the two experiments; however, the extent of activation or inhibition of CT activity was similar for each sphingolipid and lyso-sphingolipid.

[5] = test system: CTP:phosphocholine cytidylyltransferase (CCT); experiment: CCT assay in rat brain cortical homogenates with liposomes; type: biochemical
Experimental: as §2
When CCT was assayed in rat or mouse brain cortical homogenates (1 g tissue/12.5 ml of buffer), the homogenate was first centrifuged (200 gav, 20 min) to remove cell debris. The homogenate was diluted with assay buffer to give a final concentration of 200 μg protein/ml. CCT activity was also assayed using purified rat brain CCT (see below).

[6] = test system: purified rat brain CCT; experiment: CCT assay with purified rat brain CCT and liposomes; type: biochemical
Experimental: as §2
Rat brain CCT was purified by a method similar to that described for rat liver (Weinhold and Feldman, supra; Weinhold P A Rounsifer M E and Feldman D A. 1986. The purification and characterization of CTP:phosphorylcholine cytidylyltransferase from rat liver. J Biol Chem 261:5104-5110). Rat brains (11 g) were isolated from 8-10-week old rats and homogenized in 51 ml of buffer A (50 mM Tris-HCl pH 7.4, 150 mM NaCl, 1 mM EDTA, 2 mM dithiothreitol, 0.025% (w/v) sodium azide, 1 mM phenylmethylsulfonylfluoride). Brain cytosol was prepared by collecting the supernatants obtained after two sequential centrifugation steps at 10,000 gav for 20 min, and 100,000 gav for 1 h. The protein concentration of the cytosol was adjusted to 6 mg/ml with buffer A, egg yolk PC/oleic acid liposomes were added, followed by acid precipitation. The precipitate was re-suspended in 54 ml of buffer A containing 20 mM n-octyl-β-D-glucopyranoside and 1 mM phenylmethylsulfonylfluoride for 30 min at room temperature. After centrifugation (10,000 gav, 20 min), the n-octyl-β-D-glucopyranoside extract was loaded onto a DEAE-sepharose CL-6B column that had been previously packed and equilibrated with 300 ml of buffer A. All elution procedures were performed using a flow rate of 40 ml/h. The column was successively washed with 100 ml of buffer A, 300 ml of a gradient of 150 mM to 300 mM NaCl in buffer B (50 mM Tris-HCl pH 7.4, 1 mM EDTA, 2 mM dithiothreitol, 0.025% (w/v) sodium azide), and 150 ml of buffer B containing 300 mM NaCl. CCT was eluted with 70 ml of buffer B containing 400 mM NaCl and 50 mM n-octyl-β-D-glucopyranoside.
The fractions containing CCT activity were pooled, diluted with 4 volumes of buffer A and loaded onto a HTP gel hydroxyapatite column (BioRad) that had previously been equilibrated with 200 ml of buffer A. Elutions were performed at flow rates of 20 ml/hour. […]

[7] = liposomes of DOPC and oleic acid

effect on CCT activity [4]	effect of exogenously-added lipid on CCT activity [5]	Compound	other results
		CCCCCCCCCCCCCC=CC(O)C(COC1OC(CO)C(O)C(O)C1O)NC(=O)CCCCCCC (centres unmarked) [C8-GalCer]	CCT activity [1]: 9.1±0.8 nmol/min/mg of protein
		CCCCCCCCCCCCC/C=C/[C@@H](O)[C@H](COC1OC(CO)C(O)C(O)C1O)NC(=O)CCCCCCC (some centres unmarked) [C8-GlcCer]	CCT activity [1]: 25.9±4.4 nmol/min/mg of protein
		CCCCCCCCCC(=O)N[C@H](CN1CCOCC1)[C@H](O)c1ccccc1 [PDMP, D-threo-1-phenyl-2-decanoyl-amino-3-morpholino-1-propanol]	rate of axonal growth [2]: reduction; CCT activity after treatment of neurons [3]: significant reduction
No significant effect	no elevation of activity	CCCCCCCCCCCCC/C=C/[C@@H](O)[C@@H](N)CO[C@@H]1O[C@H](CO)[C@H](O)[C@H](O)[C@H]1O [galactosylsphingosine]	
No significant effect	no elevation of activity	CCCCCCCCCCCCC/C=C/[C@@H](O)[C@@H](N)CO[C@@H]1O[C@H](CO)[C@@H](O)[C@H](O)[C@H]1O [glucosylsphingosine]	
inhibited		CCCCCCCCCCCCC/C=C/[C@@H](O)C(N)CO[C@H]1O[C@H](CO)[C@@H](O[C@@H]2O[C@H](CO)[C@H](O)[C@H](O)[C@H]2O)[C@H](O)[C@@H]1O (some centres unmarked) [lactosylsphingosine]	
		CCCCCCCC/C=C\CCCCCCCC(=O)O [oleic acid]	CCT activity in DOPC/oleic acid liposomes versus DOPC liposomes alone ([6]; DOPC/oleic acid liposomes): ~10 fold
inhibited		CCCCCCCCCCCCC/C=C/[C@@H](O)[C@@H](N)CO [sphingosine]	
inhibited	did not increase CCT activity	ceramide	
no significant effect		galactosylceramide [GalCer]	effect on purified CCT ([6]; DOPC liposomes): no significant effect; effect on CCT activity ([6]; DOPC/oleic acid liposomes): no significant effect; effect on CCT activity ([5]; DOPC liposomes): did not affect; effect on CCT activity [5, 7]: had no effect
activated		glucosylceramide [GlcCer]	increase in the rate of CDP-choline synthesis [1]: > 2 fold; activation of CCT at the lowest concentration ([6]; DOPC liposomes, 2.5 mole percent): significant activation; maximal activation of CCT ([6]; DOPC liposomes, 10 mole percent): 3-4 fold; effect on CCT activity ([6]; DOPC/oleic acid liposomes): small but significant increase; effect on CCT activity [5, 7]: increased CCT activity
inhibited	did not increase CCT activity	lactosylceramide	
inhibited	did not increase CCT activity	sphingomyelin [SM]	

Compound	effect on CCT activity [4]	effect of exogenously-added lipid on CCT activity [5]	other results
CCCCCCCCCCCCC/C=C/[C@@H](O)[C@@H](N)COP(=O)([O-])OCC[N+](C)(C)C [lysosphingomyelin]	inhibited		
